Test results taken from ChEMBL document CHEMBL1127007, “Quinazolinones 2: QSAR and in vivo characterization of AT1 selective AII antagonists” (Bioorg Med Chem Lett, 1993).

Tests used:
[1] = tested on: Rattus norvegicus; experiment: Compound was evaluated in vivo for inhibition of the AII pressor response in normotensive rat at dose 1 mg/kg, iv after >6 hour; type: functional
[2] = tested on: Rattus norvegicus; experiment: The duration of action is expressed as the time for the % inhibition of pressor response to fall below 30% for a single bolus of the drug administered perorally.; type: functional
[3] = tested on: Rattus norvegicus; experiment: Compound was evaluated in vivo for inhibition of the AII pressor response in normotensive rat at dose 0.3 mg/kg, p.o. after 3.5 hour; type: functional; conditions: route oral
[4] = biological target: T1, Type-2 angiotensin II receptor (Homo sapiens) (UniProt P50052); experiment: In vitro antagonist activity against the Angiotensin II (type 2) receptor.; type: functional
T1 sequence (whole entry): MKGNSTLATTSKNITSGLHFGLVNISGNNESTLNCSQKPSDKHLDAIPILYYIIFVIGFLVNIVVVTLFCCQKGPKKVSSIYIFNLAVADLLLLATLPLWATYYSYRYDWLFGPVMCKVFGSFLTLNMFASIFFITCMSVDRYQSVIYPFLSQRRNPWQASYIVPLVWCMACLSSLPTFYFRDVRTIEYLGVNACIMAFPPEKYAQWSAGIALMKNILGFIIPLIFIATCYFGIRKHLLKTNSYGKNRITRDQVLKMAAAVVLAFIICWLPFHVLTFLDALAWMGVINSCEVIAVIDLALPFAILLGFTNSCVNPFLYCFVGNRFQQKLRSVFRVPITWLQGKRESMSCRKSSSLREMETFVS

[5] = biological target: Angiotensin II receptor (Rattus norvegicus) (UniProt P29089+P25095+P35351); experiment: Duration of action as time for pressor response to fall below 30% for a single bolus by intravenous dose; type: functional, organism-based
[6] = biological target: T2, Type-1 angiotensin II receptor (Oryctolagus cuniculus, UniProt P34976); experiment: Ability to displace [125I]Sar1-Ile8-AII from angiotensin II receptor, type 1 in rabbit aorta in presence of 0.2% bovine serum albumin (BSA) was determined in vitro; type: tissue-based
T2 sequence (P34976 whole entry): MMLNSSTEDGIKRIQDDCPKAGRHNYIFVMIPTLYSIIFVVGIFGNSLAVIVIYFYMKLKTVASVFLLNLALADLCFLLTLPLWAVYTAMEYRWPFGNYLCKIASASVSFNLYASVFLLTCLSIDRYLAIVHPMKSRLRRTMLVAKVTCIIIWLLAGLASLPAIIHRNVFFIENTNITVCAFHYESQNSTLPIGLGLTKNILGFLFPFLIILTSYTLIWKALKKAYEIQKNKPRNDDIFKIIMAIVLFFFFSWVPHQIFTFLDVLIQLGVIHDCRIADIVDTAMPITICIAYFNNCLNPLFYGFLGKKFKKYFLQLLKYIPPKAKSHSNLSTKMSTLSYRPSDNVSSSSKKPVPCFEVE

[7] = biological target: T2, Type-1 angiotensin II receptor; experiment: Displacement of [125I]Sar1-Ile8-AII (without BSA) from type 1 Angiotensin II receptor of rabbit aorta; type: tissue-based
[8] = tested on: Rattus norvegicus; experiment: Compound was evaluated in vivo for inhibition of the AII pressor response in normotensive rat at dose 1 mg/kg, iv after 0.5 hour; type: functional
[9] = tested on: Rattus norvegicus; experiment: Compound was evaluated in vivo for inhibition of the AII pressor response in normotensive rat at dose 1 mg/kg, iv after <0.5 hour; type: functional
[10] = tested on: Rattus norvegicus; experiment: Compound was evaluated in vivo for inhibition of the AII pressor response in normotensive rat at dose 1 mg/kg, iv after 4.5 hour; type: functional
[11] = tested on: Rattus norvegicus; experiment: Compound was evaluated in vivo for inhibition of the AII pressor response in normotensive rat at dose 1 mg/kg, p.o. after 0.2 hour; type: functional; conditions: route oral
[12] = tested on: Rattus norvegicus; experiment: Compound was evaluated in vivo for inhibition of the AII pressor response in normotensive rat at dose 1 mg/kg, iv after 1.2 hour; type: functional
[13] = tested on: Rattus norvegicus; experiment: Compound was evaluated in vivo for inhibition of the AII pressor response in normotensive rat at dose 1 mg/kg, iv after 0.3 hour; type: functional
[14] = tested on: Rattus norvegicus; experiment: Compound was evaluated in vivo for inhibition of the AII pressor response in normotensive rat at dose 3 mg/kg, p.o. after 1.1 hour; type: functional; conditions: route oral
[15] = tested on: Rattus norvegicus; experiment: Compound was evaluated in vivo for inhibition of the AII pressor response in normotensive rat at dose 3 mg/kg, iv after 0.9 hour; type: functional
[16] = tested on: Rattus norvegicus; experiment: Compound was evaluated in vivo for inhibition of the AII pressor response in normotensive rat at dose 10 mg/kg, iv after 2.2 hour; type: functional
[17] = tested on: Rattus norvegicus; experiment: Compound was evaluated in vivo for inhibition of the AII pressor response in normotensive rat at dose 0.3 mg/kg, iv; type: functional
[18] = tested on: Rattus norvegicus; experiment: Compound was evaluated in vivo for inhibition of the AII pressor response in normotensive rat at dose 1 mg/kg, iv after 0.1 hour; type: functional

SMILES	Activity [4] [nM]	Duration [5] [h]	IC50 [6] [nM]	IC50 [7] [nM]	other results
CCCCc1nc2ccc(N(C)C(=O)OCC(C)C)cc2c(=O)n1Cc1ccc(-c2ccccc2-c2nn[nH]n2)cc1	> 1000				inhibition in vivo at 1 mg/kg [1]: 72%; Duration [2]: 3.5 h; inhibition in vivo at 0.3 mg/kg [3]: 60%
CCCCc1nc2ccc(S(C)(=O)=O)cc2c(=O)n1Cc1ccc(-c2ccccc2-c2nn[nH]n2)cc1	> 1000	0.5	3	7.6	inhibition in vivo at 1 mg/kg [8]: 79%
CCCCc1nc2ccc(N(C)C)cc2c(=O)n1Cc1ccc(-c2ccccc2-c2nn[nH]n2)cc1	> 1000	> 0.5	5		inhibition in vivo at 1 mg/kg [9]: 55%
CCCCc1nc2ccc(-c3ccc(Cl)cc3)cc2c(=O)n1Cc1ccc(-c2ccccc2-c2nn[nH]n2)cc1				30	
CCCCc1nc2ccc(N)cc2c(=O)n1Cc1ccc(-c2ccccc2-c2nn[nH]n2)cc1	> 1000	4.5			inhibition in vivo at 1 mg/kg [10]: 93%; Duration [2]: 0.2 h; inhibition in vivo at 1 mg/kg [11]: 32%
CCCCc1nc2ccc(-c3ccccn3)cc2c(=O)n1Cc1ccc(-c2ccccc2-c2nnn[nH]2)cc1				5	
CCCCc1nc2ccc(NCc3ccccc3)cc2c(=O)n1Cc1ccc(-c2ccccc2-c2nn[nH]n2)cc1			8	1.1	
O=C(O)c1ccccc1-c1ccc(-c2nc3ccc([N+](=O)[O-])cc3c(=O)n2Cc2ccc(-c3ccccc3-c3nnn[nH]3)cc2)cc1			940		
CCCCc1nc2ccc(NC)cc2c(=O)n1Cc1ccc(-c2ccccc2-c2nn[nH]n2)cc1	> 1000	1.2			inhibition in vivo at 1 mg/kg [12]: 94%
CCCCc1nc2ccccc2c(=O)n1Cc1ccc(-c2ccccc2-c2nn[nH]n2)cc1	> 1000		6		inhibition in vivo at 1 mg/kg [13]: 40%; inhibition in vivo at 3 mg/kg [14]: 54%; Duration [2]: 1.1 h; inhibition in vivo at 3 mg/kg [15]: 70%; inhibition in vivo at 10 mg/kg [16]: 98%
CCCCc1nc2ccc(N(C)C(=O)OCC(C)C)cc2c(=O)n1Cc1ccc(-c2ccccc2-c2nnn[nH]2)cc1			3.4	1.6	
CCCCc1nc2ccc(N(C)C(=O)OCc3ccccc3)cc2c(=O)n1Cc1ccc(-c2ccccc2-c2nn[nH]n2)cc1	> 1000	0			inhibition in vivo at 0.3 mg/kg [17]: 28%
CCCCc1nc2ccc(SC)cc2c(=O)n1Cc1ccc(-c2ccccc2-c2nn[nH]n2)cc1	> 1000	0.1	7		inhibition in vivo at 1 mg/kg [18]: 44%
CCCCc1nc2ccc(N(C)C(=O)N(C)C(C)C)cc2c(=O)n1Cc1ccc(-c2ccccc2-c2nnn[nH]2)cc1				0.58	
CC(=O)Nc1ccc2nc(-c3ccc(-c4ccccc4C(=O)O)cc3)n(Cc3ccc(-c4ccccc4-c4nn[nH]n4)cc3)c(=O)c2c1			50		
O=C(O)c1ccccc1-c1ccc(-c2nc3ccccc3c(=O)n2Cc2ccc(-c3ccccc3-c3nn[nH]n3)cc2)cc1			20		
CCCCc1nc2ccc(O)cc2c(=O)n1Cc1ccc(-c2ccccc2-c2nnn[nH]2)cc1			27		
